Patent US6403593B1, “Triazole compounds and the use thereof” (Abbott Laboratories, priority 1995, dated 2002)
Where a name gives a salt, the structure may show the parent alone. Read-outs that look alike come from different tables or passages of the source.

Tests used:
human D3 receptor = target: T1, human D3 receptor (Homo sapiens, UniProt P35462); assay: D3 binding assay (125I-iodosulpiride); details: for Selectivity KiD2/KiD3: ratio of D2 (3H-spiperone) Ki to D3 (125I-sulpiride) Ki
T1 construct: host or cells: CCL 1.3 mouse fibroblasts
T1 sequence (P35462 whole entry): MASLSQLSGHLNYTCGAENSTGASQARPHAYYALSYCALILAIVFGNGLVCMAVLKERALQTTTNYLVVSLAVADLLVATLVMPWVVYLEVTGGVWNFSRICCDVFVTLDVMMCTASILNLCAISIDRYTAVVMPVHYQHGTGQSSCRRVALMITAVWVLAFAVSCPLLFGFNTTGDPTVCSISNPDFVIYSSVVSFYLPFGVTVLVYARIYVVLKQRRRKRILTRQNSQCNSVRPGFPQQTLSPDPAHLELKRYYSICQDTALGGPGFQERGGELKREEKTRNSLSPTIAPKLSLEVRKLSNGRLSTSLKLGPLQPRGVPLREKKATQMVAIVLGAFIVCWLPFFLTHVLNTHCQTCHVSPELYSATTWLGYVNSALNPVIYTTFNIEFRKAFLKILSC
Method: Cloned human D3 receptor-expressing CCL 1.3 mouse fibroblasts obtained from Res. Biochemicals Internat. One Strathmore Rd., Natick, Mass. 01760-2418 USA, were used for the binding studies.
The D3-expressing cells where grown in RPMI-1640 containing 10% fetal calf serum (GIBCO No. 041-32400 N); 100 U/ml penicillin and 0.2% streptomycin (GIBCO BRL, Gaithersburg, Md., USA). After 48h, the cells were washed with PBS and incubated with 0.05% trypsin-containing PBS for 5 min. Neutralization with medium was then carried out, and the cells were collected by centrifugation at 300×g. To lyze the cells, the pellet was briefly washed with lysis buffer (5 mM tris-HCl, pH 7.4, with 10% glycerol) and then incubated in a concentration of 10^7 cells/ml of lysis buffer at 4° C. for 30 min. The cells were centrifuged at 200×g for 10 min and the pellet was stored in liquid nitrogen.
For the D3 receptor binding assay, the membranes were suspended in incubation buffer (50 mM tris-HCl, pH 7.4, with […], 5 mM KCl, 2 mM CaCl2, 2 mM MgCl2, 10 μM quinolinol, 0.1% ascorbic acid and 0.1% BSA) in a concentration of about 10^6 cells/250 μl of assay mixture and incubated at 30° C. with 0.1 nM ^125iodosulpiride in the presence and absence of test substance. The non-specific binding was determines using 10^−6 M spiperone.
After 60 min, the free and the bound radioligand was separated by filtration through GF/B glasd fiber filters (Whatman, England) on a Skatron cell collector (Skatron, Lier, Norway), and the filters were washed with ice-cold tris-HCl buffer, pH 7.4. The radioactivity collected on the filters was quantified using a Packard 2200 CA ligand scintillation counter.
The Ki values were determined by non-linear regression analysis using the LIGAND program.

[1] = cloned human D3 receptor in CCL 1.3 mouse fibroblast membranes, 0.1 nM 125I-iodosulpiride, read-out: D3 125I-sulpiride Ki

Row | SMILES | Ki (human D3 receptor; [1]) [nM] | Selectivity KiD2/KiD3 (human D3 receptor) | melting point [°C] | affinity for the D3 receptor (in words) (human D3 receptor; D3 binding assay) | Ki (human D3 receptor) [nM]
1 | Cn1c(N)nnc1SCCCN1CCN(c2cc(C(C)(C)C)cc(C(C)(C)C)c2)CC1 [Example 15] | 8.8 | 58 |  |  | 
2 | CCn1c(N)nnc1SCCCN1CCN(c2cccc(C(F)F)c2)CC1 [Example 24] | 1.8 | 67 |  |  | 
3 | CNc1nnc(SCCCN2CCN(c3cccc(C(F)F)c3)CC2)n1C (as salt: hydrochloride) [Example 37] |  |  | 234 to 235 |  | 
4 | CNc1nnc(SCCCN2CCN(c3cccc(C(F)F)c3)CC2)n1C [Example 37] | 1.7 | 176 |  |  | 
5 | Cc1cc(N2CCN(CCCSc3nnc(N)n3C)CC2)nc(-n2cccc2)n1 [Example 41] | 8.1 | 185 | 65 to 67 |  | 
6 | Cc1nnc(/C=C/CN2CCN(c3ccccc3)CC2)n1-c1ccccc1 [reference compound] | 4100 |  |  | virtually no affinity | 
7 | CC(=CCN1CCN(c2cc(C(F)(F)F)nc(C(C)(C)C)n2)CC1)CSc1nnc(N)n1C [Example 42] | 13.4 | 182 | 67 to 72 |  | 
8 | Cn1c(N)nnc1SCCCN1CCN(c2cccc(C(F)(F)F)c2)CC1 [Example 10] |  | 49 |  |  | 4.5
